Converted amounts (≈) assume the structure as drawn. One block for each compound: values may come before it.
Experiments:
[1] = tested on: T. mentagrophytes, IFM59813; test: Drug-sensitivity test, microdilution method, CLSI guidelines; type: cell-based, Trichophyton mentagrophytes
Method: (§1) The antimicrobial activity of therapeutic agents for treating dermatomycosis was evaluated and confirmed by performing a drug-sensitivity test with major pathogenic fungi in accordance with the CLSI (Clinical Laboratory Standards Institute, U.S.) guidelines. The pathogenic fungi selected were genus Trichophyton (T. rubrum, T. mentagrophytes), genus Microsporum (M. gypseum), genus Epidermophyton (E. floccosum), genus Candida (C. albicans), genus Aspergillus (A. fumigatus), and genus Cryptococcus (C. neoformans). The Examples show the test results. The antimicrobial activity of the compounds of the present invention (MIC, mg/ml) against T. mentagrophytes, which is a typical dermatophytic fungus, is as follows: tripotassium citrate 3.1; and trisodium citrate 6.3. A drug-sensitivity test with a fungus belonging to genus Malassezia (M. furfur) was also performed in accordance with the method of Sugita et al., which employs an agar dilution method (T. Sugita et al., J. Clinical Microbiology, 43, 2824-2829 (2005)). The antimicrobial activity against M. furfur (MIC, mg/ml) was as follows: tripotassium citrate 10.0.
In these drug-sensitivity tests, the medium contained Mg ions and Ca ions necessary for fungal conidia (spores) to germinate and grow. Because carboxyl groups of organic acids bind to these ions, organic acids have competitive inhibitory activity on fungal growth.
In the antimicrobial activity measurement method in accordance with the CLSI guidelines described above, an excessively large amount of magnesium ions and calcium ions is added to the RPMI-1640 medium for use. Thus, the trialkali metal salt of citric acid added to the test system binds completely to the excessively large amount of metal ions, resulting in an apparently large MIC value. For this reason, the ICP analytical method was performed to measure the content of magnesium ions and calcium ions in a test solution used as a blank test in this test system (a solution obtained by adding a solution containing spores of T. mentagrophytes to a RPMI-1640 medium solution, and performing a culture treatment) and to measure the content of magnesium ions and calcium ions in the original RPMI-1640 medium solution, thereby calculating the amount of alkali metal ions absorbed by the spores of T. mentagrophytes. The amount of the citric salt that can bind to all of the alkali metal ions absorbed by the spores is the substantial MIC value.
The antifungal activity of tripotassium citrate and trisodium citrate against a variety of pathogenic fungi was evaluated by performing a drug-sensitivity test. The test was performed using a microdilution method in accordance with the CLSI (Clinical Laboratory Standards Institute, U.S.) guidelines. […]

[2] = tested on: Candida krusei; conditions: Non-patent Literature 3; cited from earlier work
[3] = tested on: Aspergillus oryzae; conditions: Non-patent Literature 3; cited from earlier work
[4] = tested on: T. rubrum, IFM59814; test: Drug-sensitivity test, microdilution method, CLSI guidelines; type: cell-based, Trichophyton rubrum
Method: as §1, with “10.0. […]” for “10.0.”
(§2) The antifungal activity of tripotassium citrate and trisodium citrate against a variety of pathogenic fungi was evaluated by performing a drug-sensitivity test. […]

[5] = tested on: M. gypseum, IFM58916; test: as above; type: cell-based, Microsporum gypseum
Method: as §1, with “10.0. […]” for “10.0.”
as §2

[6] = tested on: E. floccosum, IFM53345; test: as above; type: cell-based, Epidermophyton floccosum
Method: as §1, with “10.0. […]” for “10.0.”
as §2

[7] = tested on: C. albicans, IFM5740; test: as above; type: cell-based, Candida albicans
Method: as §1, with “10.0. […]” for “10.0.”
as §2

[8] = tested on: A. fumigatus, IFM4942; test: as above; type: cell-based, Aspergillus fumigatus
Method: as §1, with “10.0. […]” for “10.0.”
as §2

[9] = tested on: C. neoformans, IFM5807; test: as above; type: cell-based, Cryptococcus neoformans
Method: as §1, with “10.0. […]” for “10.0.”
as §2

[10] = tested on: M. furfur; test: Malassezia drug-sensitivity test, method of Sugita et al. (agar dilution); type: cell-based; conditions: mLNA medium, 32° C., 7 days
Method: as §1
The antimicrobial activity of tripotassium citrate against fungi belonging to genus Malassezia was evaluated by performing a drug-sensitivity test with human-related Malassezia species, in accordance with the method disclosed in Sugita et al. (2005). […]

[11] = tested on: hyperkeratotic tinea (Trichophyton mentagrophytes isolated); test: Human case, Example 3: external treatment of hyperkeratotic tinea; type: in vivo; conditions: 0.5% test solution in 20% ethanol, sprayed three times daily, after about 3 months
Method: (§3) The curative action of trialkali metal salts of citric acid on dermatomycosis was determined based on whether there was a therapeutic effect on human tinea. The cases of tinea used in the test include a variety of cases, such as vesicular tinea on the skin, interdigital tinea, hyperkeratotic tinea, tinea corporis, and tinea unguium. […] In these cases, no skin irritation due to the medicinal agents was confirmed. In many cases described in the Examples, Trichophyton fungus was isolated and identified as a pathogenic fungus; additionally, Example 10 describes a case in which Candida was isolated and identified, and Example 11 describes a case in which Aspergillus was isolated and identified.
20% ethanol was added to 5.3 g of tripotassium citrate monohydrate to give 1000 g, thereby preparing a 0.5% test solution. The 0.5% test solution was applied to hyperkeratotic tinea that extensively developed on the arch on the sole of a foot by spraying the solution three times daily. […] From the area affected by this tinea, Trichophyton mentagrophytes, which is one type of Trichophyton fungi, was isolated and confirmed.

[12] = tested on: vesicular tinea; test: Human case, Example 4: external treatment of vesicular tinea; type: in vivo; conditions: 3% test solution, sprayed twice daily; symptom practically disappeared after about 1 month, treatment continued about 1 month more
Method: as §3
20 mL of glycerin (84-87% aqueous solution) was added to 63.6 g of tripotassium citrate monohydrate, and 15% ethanol was further added thereto to give 2 L, thereby preparing a 3% test solution. This 3% test solution was applied twice daily, by spraying the solution, to vesicular tinea that extensively developed on the arch of the left foot. After about 1 month, the skin symptom practically disappeared.

[13] = tested on: tinea corporis; test: Human case, Example 5: external treatment of tinea corporis; type: in vivo; conditions: 3% test solution, sprayed twice daily, after about 2 months
Method: as §3
A 3% test solution of tripotassium citrate prepared in the same manner as in Example 4 was sprayed twice daily onto tinea corporis that extensively developed over the left part of the buttocks. […] Although light brown pigmentation developed on the healed skin, it faded away over time and became less prominent.

[14] = tested on: thin hyperkeratotic tinea (Trichophyton rubrum isolated); test: Human case, Example 6: external treatment of thin hyperkeratotic tinea; type: in vivo; conditions: 3% test solution, sprayed once daily, after about 1 month
Method: as §3
A 3% test solution prepared in the same manner as in Example 4 was sprayed once daily onto thin hyperkeratotic tinea that extensively developed over around the tip of the nails on the sole of both feet. […] From this affected area of the skin, Trichophyton rubrum was isolated and confirmed.

[15] = tested on: interdigital tinea; test: Human case, Example 7: external treatment of interdigital tinea; type: in vivo; conditions: 3% test solution, sprayed once daily, after about 2 months
Method: as §3
A 3% test solution prepared in the same manner as in Example 4 was sprayed once daily onto interdigital tinea that extensively developed between the toes of the feet.

[16] = tested on: tinea in four nails of the left foot; test: Human case, Example 8: immersion treatment of toenail tinea; type: in vivo; conditions: entire foot immersed 1 hour daily in 3% test solution, after a half year
Method: as §3
In the case in which tinea developed in all four nails except the fourth nail of the left foot, the entire foot was immersed for 1 hour daily in a 3% test solution prepared in the same manner as in Example 4. Over the course of the treatment, new nails grew from the base of the nails.

[17] = tested on: tinea of nail and surrounding skin (Trichophyton rubrum isolated); test: Human case, Example 9: immersion treatment of fingernail tinea; type: in vivo; conditions: 5% test solution, finger immersed 5 hours once every 2 days, after 3 months
Method: as §3
20 mL of glycerin (84-87% aqueous solution) was added to 106 g of tripotassium citrate monohydrate, and 15% ethanol was further added thereto to give 2 L, thereby preparing a 5% test solution. About 2 mL of this test solution was placed into a commercially available fingerstall (size M). The middle finger of the right hand, which developed tinea on the right edge of the nail and the surrounding skin from the tip to the base of the nail, was immersed in the solution for 5 hours once every 2 days. […] From the nail specimen of this case, a Trichophyton fungus was isolated, and confirmed to be Trichophyton rubrum by gene analysis.

[18] = tested on: tinea unguium (Clavispora lusitaniae isolated); test: Human case, Example 10: external treatment of tinea unguium; type: in vivo; conditions: 5% solution, sprayed once daily, after one and a half months
Method: as §3
A 5% solution of tripotassium citrate prepared in the same manner as in Example 9 was sufficiently sprayed once daily on tinea unguium on the tip of the nail of the fourth finger of the right hand. […] From the nail specimen of this affected area, a Candida fungus was isolated and confirmed to be Clavispora lusitaniae (the teleomorph of Candida lusitaniae) by gene analysis.

[19] = tested on: small red papules (Aspergillus tubingensis as the pathogen); test: Human case, Example 11: external treatment of small red papules; type: in vivo; conditions: 5% solution, sprayed once daily, left chest
Method: as §3
A 5% solution of tripotassium citrate prepared in the same manner as in Example 9 was sprayed once daily on small red papules that developed on the left chest part. […] From the small red papules, a body fluid was collected, and the pathogen was cultured, followed by gene analysis, thereby confirming Aspergillus tubingensis as the pathogen.

[20] = tested on: tinea unguium; test: Human case, Example 12: external treatment of tinea unguium; type: in vivo; conditions: 10% aqueous solution, sprayed once daily, after a half year
Method: as §3
A 10% aqueous solution of tripotassium citrate was prepared. This 10% test solution was sprayed once daily on the right thumbnail, the entirety of which had developed tinea unguium.

[21] = tested on: human tinea; test: Curative action on human tinea, overall (Examples 3 to 13); type: in vivo; conditions: 5% solution applied; relapse of symptoms and pigmentation before the end result
Method: as §3
Applying a 5% tripotassium citrate solution on the small red papules on the body made the papules smooth, and relapse of symptoms was observed after every day, with development of pigmentation, and followed by complete cure; this phenomenon was observed quite frequently. The relapse of symptoms was caused by germination of spores, and tripotassium citrate appears to have induced the germination of spores. The biggest factor for the low likelihood of curing dermatomycosis is the presence of spores; even after a treatment with a medicinal agent, if spores remain, the spores germinate, enabling dermatomycosis to return. […]

[22] = tested on: small red papules; test: Human case, Example 13: external treatment of small red papules; type: in vivo; conditions: 3% (also printed 5%) test solution, sprayed once daily, left thigh
Method: as §3
A 3% test solution of trisodium citrate was prepared in the same manner as in Example 4. This 5% test solution was sprayed once daily on small red papules that developed on the left thigh.

[23] = tested on: Candida albicans; conditions: Non-patent Literature 5; cited from earlier work

- MIC [1]: 2000 µg/mL (≈ 2160 µM)
Structure (SMILES): C[C@@H]1[C@H](O)[C@@H](C)/C=C/C=C/C=C/C=C/C=C/C=C/C=C/[C@H](O[C@@H]2O[C@H](C)[C@@H](O)[C@H](N)[C@@H]2O)C[C@@H]2O[C@](O)(C[C@@H](O)C[C@@H](O)[C@H](O)CC[C@@H](O)C[C@@H](O)CC(=O)O[C@H]1C)C[C@H](O)[C@H]2C(=O)O [amphotericin B, reference compound]

Structure (SMILES): O=C(O)CC(O)(CC(=O)O)C(=O)O [citric acid, reference compound]
- antimicrobial activity [2]: did not exhibit antimicrobial activity
- antimicrobial activity [3]: did not exhibit antimicrobial activity

Structure (SMILES): O=C([O-])CC(O)(CC(=O)[O-])C(=O)[O-].[K+].[K+].[K+] [tripotassium citrate]
- MIC [4]: 12500 µg/mL
- MIC [1]: 3100 µg/mL
- corrected MIC value ([1]; corrected for the metal ions absorbed by spores (ICP analysis)): 54 µg/mL
- MIC [5]: 12500 µg/mL
- MIC [6]: 1600 µg/mL
- MIC [7]: 25000 µg/mL
- MIC [8]: 6300 µg/mL
- MIC [9]: 390 µg/mL
- MIC [10]: 10000 µg/mL
- curative effect on hyperkeratotic tinea [11]: hyperkeratotic tinea disappeared, and clean skin grew back
- curative effect on vesicular tinea [12]: this tinea was cured
- curative effect on tinea corporis [13]: tinea corporis disappeared, and healthy skin grew back
- curative effect on thin hyperkeratotic tinea [14]: pink-color, healthy skin grew back
- curative effect on interdigital tinea [15]: the skin symptom disappeared, and healthy skin grew back
- curative effect on nail tinea (foot) [16]: tinea in all of the nails was fully cured
- curative effect on tinea of fingernail and surrounding skin [17]: a healthy nail and skin grew back
- curative effect on tinea unguium (Candida) [18]: tinea unguium was cured
- effect on small red papules (Aspergillus) [19]: immediately shrank, and after one week, pigmentation and cicatrization occurred
- curative effect on tinea unguium [20]: a healthy nail returned
- effect on small red papules on the body [21]: complete cure

Structure (SMILES): O=C([O-])CC(O)(CC(=O)[O-])C(=O)[O-].[Na+].[Na+].[Na+] [trisodium citrate]
- MIC [1]: 6300 µg/mL
- effect on small red papules [22]: immediately shrank, and after 2 weeks, cicatrization and pigmentation occurred
- antimicrobial activity [2]: did not exhibit antimicrobial activity
- antimicrobial activity [3]: did not exhibit antimicrobial activity
- antimicrobial activity [23]: exhibited antimicrobial activity

Reference: US11083701B2, “Dermatomycosis treatment agent” (priority 2015, dated 2021)
